Source: PMC12454493, “Insight on novel sulfamoylphenyl pyrazole derivatives as anticancer carbonic anhydrase inhibitors” (Molecular Diversity, 2024)

Legend:
[1] = tested on: MALME-3M; experiment: NCI-60 one-dose SRB screen (Melanoma); type: cell-based; details: Homo sapiens, single dose 10 µM, 48 h, read-out: Growth inhibition percent (GI %)
Protocol: (§1) The National Cancer Institute (NCI) Developmental Therapeutic Program (www.dtp.nci.nih.gov) selected the 20 novel synthesized compounds 4a-e, 5a-e, 6a-c, 9a-e, 10 and 11 to test for their anticancer activity at a single dose of 10 µM using SRB assay. […] Supplementary Data S3; Table S1 presents the detailed screening results of the most promising compounds. The preliminary screening’s detailed results for the remaining compounds are elucidated in the (Supplementary Data S3; Table S2).
(§2) The guidelines of the Drug Evaluation Branch’s protocol at the NCI in Bethesda served as the basis for the in vitro anticancer screening assays. at one dose 10 µM against a panel of 60 cancer cell lines. The human tumor cell lines used belonged to nine panels: leukemia, melanoma, lung, colon, CNS, ovarian, renal, prostate and breast cancers using the sulforhodamine B (SRB) assay in a 48 h drug exposure protocol.

[2] = tested on: MDA-MB-435; experiment: NCI-60 one-dose SRB screen (Melanoma); type: cell-based; details: Homo sapiens, single dose 10 µM, 48 h, read-out: Growth inhibition percent (GI %)
Protocol: as §1, §2

[3] = tested on: LOX IMVI; experiment: NCI-60 one-dose SRB screen (Melanoma); type: cell-based; details: Homo sapiens, single dose 10 µM, 48 h, read-out: Growth inhibition percent (GI %)
Protocol: as §1, §2

[4] = tested on: UACC-257; experiment: NCI-60 one-dose SRB screen (Melanoma); type: cell-based; details: Homo sapiens, single dose 10 µM, 48 h, read-out: Growth inhibition percent (GI %)
Protocol: as §1, §2

[5] = tested on: SK-MEL-2; experiment: NCI-60 one-dose SRB screen (Melanoma); type: cell-based; details: Homo sapiens, single dose 10 µM, 48 h, read-out: Growth inhibition percent (GI %)
Protocol: as §1, §2

[6] = tested on: SK-MEL-5; experiment: NCI-60 one-dose SRB screen (Melanoma); type: cell-based; details: Homo sapiens, single dose 10 µM, 48 h, read-out: Growth inhibition percent (GI %)
Protocol: as §1, §2

[7] = tested on: UACC-62; experiment: NCI-60 one-dose SRB screen (Melanoma); type: cell-based; details: Homo sapiens, single dose 10 µM, 48 h, read-out: Growth inhibition percent (GI %)
Protocol: as §1, §2

[8] = tested on: M14; experiment: NCI-60 one-dose SRB screen (Melanoma); type: cell-based; details: Homo sapiens, single dose 10 µM, 48 h, read-out: Growth inhibition percent (GI %)
Protocol: as §1, §2

[9] = tested on: SK-MEL-28; experiment: NCI-60 one-dose SRB screen (Melanoma); type: cell-based; details: Homo sapiens, single dose 10 µM, 48 h, read-out: Growth inhibition percent (GI %)
Protocol: as §1, §2

[10] = tested on: HCT-15; experiment: NCI-60 one-dose SRB screen (Colon Cancer); type: cell-based; details: Homo sapiens, single dose 10 µM, 48 h, read-out: Growth inhibition percent (GI %)
Protocol: as §1, §2

[11] = tested on: COLO 205; experiment: NCI-60 one-dose SRB screen (Colon Cancer); type: cell-based; details: Homo sapiens, single dose 10 µM, 48 h, read-out: Growth inhibition percent (GI %)
Protocol: as §1, §2

[12] = tested on: HCT-116; experiment: NCI-60 one-dose SRB screen (Colon Cancer); type: cell-based; details: Homo sapiens, single dose 10 µM, 48 h, read-out: Growth inhibition percent (GI %)
Protocol: as §1, §2

[13] = tested on: KM12; experiment: NCI-60 one-dose SRB screen (Colon Cancer); type: cell-based; details: Homo sapiens, single dose 10 µM, 48 h, read-out: Growth inhibition percent (GI %)
Protocol: as §1, §2

[14] = tested on: HCC-2998; experiment: NCI-60 one-dose SRB screen (Colon Cancer); type: cell-based; details: Homo sapiens, single dose 10 µM, 48 h, read-out: Growth inhibition percent (GI %)
Protocol: as §1, §2

[15] = tested on: SW-620; experiment: NCI-60 one-dose SRB screen (Colon Cancer); type: cell-based; details: Homo sapiens, single dose 10 µM, 48 h, read-out: Growth inhibition percent (GI %)
Protocol: as §1, §2

[16] = tested on: HT29; experiment: NCI-60 one-dose SRB screen (Colon Cancer); type: cell-based; details: Homo sapiens, HT-29, single dose 10 µM, 48 h, read-out: Growth inhibition percent (GI %)
Protocol: as §1, §2

[17] = tested on: OVCAR-8; experiment: NCI-60 one-dose SRB screen (Ovarian cancer); type: cell-based; details: Homo sapiens, single dose 10 µM, 48 h, read-out: Growth inhibition percent (GI %)
Protocol: as §1, §2

[18] = tested on: SK-OV-3; experiment: NCI-60 one-dose SRB screen (Ovarian cancer); type: cell-based; details: Homo sapiens, single dose 10 µM, 48 h, read-out: Growth inhibition percent (GI %)
Protocol: as §1, §2

[19] = tested on: OVCAR-4; experiment: NCI-60 one-dose SRB screen (Ovarian cancer); type: cell-based; details: Homo sapiens, single dose 10 µM, 48 h, read-out: Growth inhibition percent (GI %)
Protocol: as §1, §2

[20] = tested on: IGROV1; experiment: NCI-60 one-dose SRB screen (Ovarian cancer); type: cell-based; details: Homo sapiens, IGROV-1, single dose 10 µM, 48 h, read-out: Growth inhibition percent (GI %)
Protocol: as §1, §2

[21] = tested on: OVCAR-5; experiment: NCI-60 one-dose SRB screen (Ovarian cancer); type: cell-based; details: Homo sapiens, single dose 10 µM, 48 h, read-out: Growth inhibition percent (GI %)
Protocol: as §1, §2

[22] = tested on: NCI/ADR-RES; experiment: NCI-60 one-dose SRB screen (Ovarian cancer); type: cell-based; details: Homo sapiens, single dose 10 µM, 48 h, read-out: Growth inhibition percent (GI %)
Protocol: as §1, §2

[23] = tested on: OVCAR-3; experiment: NCI-60 one-dose SRB screen (Ovarian cancer); type: cell-based; details: Homo sapiens, single dose 10 µM, 48 h, read-out: Growth inhibition percent (GI %)
Protocol: as §1, §2

[24] = molecular target: hCA XII (Homo sapiens, UniProt O43570); experiment: CA inhibitory activity, spectrophotometric p-NPA assay; type: biochemical; details: p-NPA substrate, pH 7.5, 25 °C, triplicate; read-out: IC50 (µM) ± SD hCA XII
Sequence of hCA XII (O43570 25-354): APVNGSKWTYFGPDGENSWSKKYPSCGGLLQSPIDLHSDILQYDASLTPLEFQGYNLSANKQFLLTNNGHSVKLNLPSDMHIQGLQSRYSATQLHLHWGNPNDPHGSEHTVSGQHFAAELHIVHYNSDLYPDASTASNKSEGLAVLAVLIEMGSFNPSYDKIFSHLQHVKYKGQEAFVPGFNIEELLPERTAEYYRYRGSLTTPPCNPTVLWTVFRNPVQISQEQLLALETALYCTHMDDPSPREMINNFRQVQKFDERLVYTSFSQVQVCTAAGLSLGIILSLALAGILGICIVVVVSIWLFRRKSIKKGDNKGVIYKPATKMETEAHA

[25] = tested on: UO-31; experiment: NCI-60 one-dose SRB screen (Renal Cancer); type: cell-based; details: Homo sapiens, single dose 10 µM, 48 h, read-out: Growth inhibition percent (GI %)
Protocol: as §1, §2

[26] = tested on: CAKI-1; experiment: NCI-60 one-dose SRB screen (Renal Cancer); type: cell-based; details: Homo sapiens, single dose 10 µM, 48 h, read-out: Growth inhibition percent (GI %)
Protocol: as §1, §2

[27] = tested on: TK-10; experiment: NCI-60 one-dose SRB screen (Renal Cancer); type: cell-based; details: Homo sapiens, single dose 10 µM, 48 h, read-out: Growth inhibition percent (GI %)
Protocol: as §1, §2

[28] = tested on: 786-0; experiment: NCI-60 one-dose SRB screen (Renal Cancer); type: cell-based; details: Homo sapiens, single dose 10 µM, 48 h, read-out: Growth inhibition percent (GI %)
Protocol: as §1, §2

[29] = tested on: RXF 393; experiment: NCI-60 one-dose SRB screen (Renal Cancer); type: cell-based; details: Homo sapiens, single dose 10 µM, 48 h, read-out: Growth inhibition percent (GI %)
Protocol: as §1, §2

[30] = tested on: ACHN; experiment: NCI-60 one-dose SRB screen (Renal Cancer); type: cell-based; details: Homo sapiens, single dose 10 µM, 48 h, read-out: Growth inhibition percent (GI %)
Protocol: as §1, §2

Cc1ccc(-c2nn(-c3ccc(S(N)(=O)=O)cc3)cc2C(=O)OCC(=O)Nc2ccc(S(N)(=O)=O)cc2)cc1 [Compound 4b, 2-Oxo-2-[(4-sulfamoylphenyl)amino] ethyl 1-(4-sulfamoylphenyl)-3-(p-tolyl)-1H-pyrazole-4-carboxylate]
inhibition at 10 µM [1]: < 5% | inhibition at 10 µM [2]: < 5% | inhibition at 10 µM [3]: < 5% | inhibition at 10 µM [4]: 5.42% | inhibition at 10 µM [5]: 8.94% | inhibition at 10 µM [6]: < 5% | inhibition at 10 µM [7]: < 5% | inhibition at 10 µM [8]: < 5% | inhibition at 10 µM [9]: < 5% | inhibition at 10 µM [10]: < 5% | inhibition at 10 µM [11]: < 5% | inhibition at 10 µM [12]: < 5% | inhibition at 10 µM [13]: < 5% | inhibition at 10 µM [14]: < 5% | inhibition at 10 µM [15]: < 5% | inhibition at 10 µM [16]: 11.6% | inhibition at 10 µM [17]: < 5% | inhibition at 10 µM [18]: < 5% | inhibition at 10 µM [19]: < 5% | inhibition at 10 µM [20]: < 5% | inhibition at 10 µM [21]: 5.99% | inhibition at 10 µM [22]: < 5% | inhibition at 10 µM [23]: < 5% | IC50 [24]: 0.17 ± 0.006 µM | inhibition at 10 µM [25]: 14.5% | inhibition at 10 µM [26]: 15.2% | inhibition at 10 µM [27]: < 5% | inhibition at 10 µM [28]: 9.87% | inhibition at 10 µM [29]: < 5% | inhibition at 10 µM [30]: < 5%
